Data set [1] has as its system CCl4-induced hepatotoxicity. Put plainly: Determination of total protein (TP) in CCl4-intoxicated rats. To be noted: liver tissue; for Total Protein: n = 6, mean. The data set is classed as in vivo, Wistar albino rats. On the procedure:
(§1) Animals and study design: Wistar albino rats (180-200 g) were obtained from the Experimental Animal Care Center of the College of Pharmacy, King Saud University, Riyadh. Animals were maintained on standard chow diet and housed in polycarbonate cages in a room free from any source of chemical contamination, artificially illuminated (12 h dark/light cycle) and thermally controlled (25±2° C.) at the animal facility. All animals received humane care in compliance with the guidelines of the Ethics Committee of the Experimental Animal Care Society, College of Pharmacy, King Saud University, Riyadh, Saudi Arabia. After a one-week acclimatization period, animals were randomly allocated into 5 groups and treated as follows: group (1), untreated control; and groups 2, 3, 4, and 5 received 0.25 mL of CCl4 in liquid paraffin (1:1) 1.25 mL/kg body weight intraperitoneally (IP). Group 2 was administered only CCl4. Groups 3 and 4 received DHBP-2 (10 mg/kg) and (20 mg/kg/day) orally for 2 weeks, respectively. Rats in group 5 were treated with (10 mg/kg) orally with silymarin for similar days. The blood was collected by cardiac puncture after 24 hours following the administration of CCl4, allowed to clot, and the serum was then separated. After collecting the blood, the animals were sacrificed using ether anesthesia. The rat livers were dissected out and used for biochemical estimations and histological assessment.
Determination of total protein (TP): Total protein was estimated by the kit method, supplied by Crescent Diagnostics, Jeddah, Saudi Arabia. The absorbance of this complex at 546 nm is proportional to the protein concentration. […]

Data set [2] relates to CCl4-induced hepatotoxicity. Put plainly: Serum lipid profile in CCl4-intoxicated rats. The data set is classed as in vivo, Wistar albino rats. To be noted: 20 mg/kg, two week pretreatment before CCl4. Here is the method: as §1
For data set [3], the system named is CCl4-induced hepatotoxicity in hepatocytes of rats. Put plainly: Histopathological evaluation of liver of CCl4-intoxicated rats. The conditions noted are these: light micrographs, hematoxylin and eosin. The data set is classed as in vivo, Wistar albino rats. On the procedure:
as §1, with “The rat livers were dissected out and used for biochemical estimations and histological assessment.” left out

The subject of data set [4] is CCl4-induced hepatotoxicity. Put plainly: Estimation of hepatic non-protein sulfhydryls (NP-SH) in CCl4-intoxicated rats. The conditions noted are these: liver tissue; for NP-SH: n = 6, mean. The data set is classed as in vivo, Wistar albino rats. Here is the method: as §1
Estimation of non-protein sulfhydryls (NP-SH): Hepatic non-protein sulfhydryls were measured according to the method of Sedlak and Lindsay et. al., Analytical Biochemistry C, 1968, 25, 192-205. The livers were homogenized in ice-cold 0.02 mmol/L ethylenediaminetetraacetic acid (EDTA). The absorbance was measured within 5 min. of addition of 5,5′-dithio-bis(2-nitrobenzoic acid) (DTNB) at 412 nm against a reagent blank.

The next data set deals with mice. Put plainly: Acute toxicity test, oral administration. To be noted: in 0.5% CMC, observation up to 14 days. The data set is classed as in vivo. Here is the method:
Acute toxicity test: The acute toxicity test was performed on mice, for oral administration. DHPB-2 was dissolved in 0.5% CMC (carboxymethylcellulose) in water and administered at various doses, ranging from ([…]), to different groups of mice. The animals were observed continuously for 1 h and then at half hourly intervals for 4 h on the first day for clinical signs and symptoms of toxicity, and further up to 72 h followed by 14 days, for any mortality.

Data set [5] deals with CCl4-induced hepatotoxicity. Put plainly: Determination of malondialdehyde (MDA) in liver tissue of CCl4-intoxicated rats. The data set is classed as in vivo, Wistar albino rats. Here is the method: as §1
Determination of malondialdehyde (MDA): The method reported by (Utley H. C. et al., Archives of Biochemistry Biophysics, 1967, 260, 521-531) was followed. Briefly, the liver tissues were removed, and tissue was homogenized in 0.15 M KCl (at 4° C.; Potter-Elvehjem type C homogenizer) to give a 10% w/v homogenate. The absorbance of the solution was then read at 532 nm. The content of malondialdehyde (nmol/g wet tissue) was then calculated, by reference to a standard curve of malondialdehyde solution.

Data set [6] has as its system CCl4-induced hepatotoxicity. Put plainly: Estimation of serum marker enzymes and bilirubin in CCl4-intoxicated rats. The data set is classed as in vivo, Wistar albino rats. The conditions noted are these: 20 mg/kg orally for 2 weeks before CCl4, vs CCl4 group. On the procedure:
as §1
Estimation of marker enzymes: Serum glutamate oxaloacetate transaminase (SGOT/AST), serum glutamate pyruvate transaminase (SGPT/ALT) (Reitman S. A. et al., Am. J. Clin. Pathol. 1957, 28 (1), 56-63), alkaline phosphatase (ALP), gamma-glutamyl transferase (GGT) and bilirubin were determined using Reflotron Plus Analyzer and Roche kits (Roche Diagnostics GmbH, Mannheim, Germany) (King E. J. et al., Practical Clinical Biochemistry, H. Varley, Ed., CBS publishers, New Delhi, India, 1988).

For the compound `O=C1NC=C(C(=O)c2ccc3c(c2)OCCO3)C(c2ccc([N+](=O)[O-])cc2)N1` (centres unmarked) [DHPB-2, 4-(4-Nitrophenyl)-5-(2,3-dihydro-1,4-benzodioxin-6-ylcarbonyl)-3,4-dihydro-pyrimidin2(1H)-one], in data set [1] (20 mg/kg, vs CCl4 group), the “TP level (in words)” value is on record as “significantly enhanced”. Also, the “Total Protein” value in data set [1] (dose 10 mg/kg + CCl4) was 38.11 g/L. Further, the “Total Protein” value in data set [1] (dose 20 mg/kg + CCl4) amounted to 74.03 g/L. Further, in data set [2], the HDL cholesterol level entry was “significantly improved”, the LDL cholesterol level result is reported as “significantly reduced”, the VLDL cholesterol level entry was “significantly reduced” and the cholesterol level entry was “significantly reduced”. Further, the triglycerides level result in data set [2] is “significantly reduced”. Besides, the “histopathological assessment of the liver” value in data set [3] (10 mg/kg/day oral pretreatment) is “marked improvement in liver parenchyma”. For the same compound, the “histopathological assessment of the liver” value in data set [3] (20 mg/kg/day oral pretreatment) is listed as “marked improvement in liver parenchyma”. The “NP-SH level (in words)” value in data set [4] (20 mg/kg, vs CCl4 group) was “significantly enhanced”. Further, the NP-SH in data set [4] (dose 10 mg/kg + CCl4) was 4.30 nmol/g. Besides, the NP-SH in data set [4] (dose 20 mg/kg + CCl4) is recorded as 6.16 nmol/g. For the same compound, the “dose up to which no toxicity symptoms and no morbidity were observed” value in the data set with mice is recorded as “up to 500 mg/kg”. The “level of MDA (in words)” value in data set [5] (20 mg/kg, vs CCl4 group) was “significant reduction”. In data set [5] (dose 10 mg/kg + CCl4, n = 6, mean), the MDA came out at 6.84 nmol/g. Moreover, the MDA in data set [5] (dose 20 mg/kg + CCl4, n = 6, mean) is on record as 1.59 nmol/g. In data set [6], the ALP level entry is recorded as “significant decrease”, the ALT level result is “significant decrease”, the AST level entry was “significant decrease” and the GGT level result is “significant decrease”. In data set [6], the bilirubin level entry is given as “significant decrease”.

Compound `CCOc1ccc(C2NC(=O)NC=C2C(=O)c2ccc3c(c2)OCCO3)cc1` (centres unmarked) [DHPB-6, 4-(4-Ethoxyphenyl)-5-(2,3-dihydro-1,4-benzodioxin-6-ylcarbonyl)-3,4-dihydro-pyrimidin-2(1H)-one] came in with a melting point of 210 to 212 °C.
